Source: patent publication US8871796B2, “Diaryl ether derivatives as notch sparing gamma secretase inhibitors” (Merck Sharp & Dohme Corp., priority 2009, dated 2014)
Where two headings read alike, the source gives them in different places.

Assays:
[1] = APP processing: AlphaLisa assay of secreted Aβ40 and Aβ42 from SP4CT cells; type: cell-based; conditions: Homo sapiens, SH-SY5Y cells expressing amyloid β protein (SP4CT cells)
How it was run: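 Media from compound-treated SP4CT cells (SH-SY5Y expressing amyloid β protein) was assayed by AlphaLisa. Donor beads carried biotinylated 4G8 anti-Aβ antibody; acceptor beads carried G210 (Aβ40) or 12F4 (Aβ42) in separate plates, with luminescence proportional to peptide abundance.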

[2] = Pharmacokinetics in rats, IV or PO dosing, plasma LC-MS/MS; type: in vivo, Sprague Dawley rats; conditions: for clearance / bioavailability / half-life: Sprague Dawley; for clearance: intravenous, read-out: Rat Cl; for AUC(Norm)(0-x): dose-normalised
Experimental: Pharmacokinetic parameters are determined in Sprague Dawley rats, Beagle dogs or Rhesus monkeys by dosing the compounds intravenously (IV) or orally (PO). A dose of 0.25 mg/kg is administered either IV or PO to each subject with a dosing solution of 0.25 mg/ml in a 30:70 v/v mixture of PEG400:40% Captisol®. Plasma samples are collected at 5 min. (IV only), 15 min., 30 min., 1 h, 2 h, 4 h, 6 h, 8 h, 24 h, 48 h, 72 h, 96 h, 120 h, 144 h, and 168 h. Samples are analyzed by LC-MS/MS (API5000™) to determine the concentration in plasma. Briefly, 50 μL plasma is precipitated with 200 μL acetonitrile containing an appropriate internal standard. Samples are filtered, 500 pt of water is added to each sample and 10 μl, of this is injected on a C18 column (2.0 mm×30 mm, 3 μm particle size) and eluted using a gradient LC method with water containing 0.1% formic acid as the aqueous mobile phase, and acetonitrile containing 0.1% formic acid as the organic phase. Electrospray ionization with multiple reaction monitoring is used for MS/MS detection. Plasma concentration of the compounds is determined using a standard curve that was prepared similar to the samples in the respective matrix. Non-compartmental analysis is performed using Watson 7.2 to generate the PK parameters.

[3] = read-out: IC50, inhibition of production of Aβ40 peptide
[4] = read-out: IC50, inhibition of production of Aβ42 peptide
[5] = plasma, rat, 0.25 mg/kg IV or PO

| Compound | IC50 [1, 3] [nM] | IC50 [1, 4] [nM] | also measured |
| --- | --- | --- | --- |
| N-(1-{3-[1-ethyl-3-(4-fluorophenoxy)-1H-pyrazol-5-yl]phenyl}-1-methylethyl)-2,2,2-trifluoroethanesulfonamide [Example 53] | – | – | Rat Cl ([2]; 0.25 mg/kg, plasma): 1 mL/min/kg; % F ([2]; rat, 0.25 mg/kg IV or PO): 70%; AUC(Norm)(0-x) ([2]; rat, 0.25 mg/kg, plasma): 35 µM·kg·h/mg; t1/2 ([2]; rat, 0.25 mg/kg, plasma): 16 h |
| CCn1nc(-c2cccc(C(C)(C)NS(=O)(=O)CC(F)(F)F)c2)cc1CN1CCC(C(F)(F)F)CC1 [Example 23 from WO 2004/089911 A1, reference compound] | – | – | clearance ([2]; rat, 0.25 mg/kg, plasma): 120 mL/min/kg; half-life ([2]; rat, 0.25 mg/kg, plasma): 324 min; AUC(Norm)(0-x) ([2]; rat, 0.25 mg/kg, plasma): 0.25 µM·kg·h/mg |
| CCn1nc(COc2ccc(F)cc2)cc1-c1cccc(C(C)(C)NS(=O)(=O)NC2CCC2)c1 [Example 2 from WO 2004/089911 A1, reference compound] | – | – | clearance ([2]; rat, 0.25 mg/kg, plasma): 43 mL/min/kg; bioavailability [2, 5]: 9%; half-life ([2]; rat, 0.25 mg/kg, plasma): 138 min; AUC(Norm)(0-x) ([2]; rat, 0.25 mg/kg, plasma): 0.79 µM·kg·h/mg |
| CCn1nc(COc2ccc(C#N)cc2)cc1-c1cccc(C(C)(C)NS(=O)(=O)NC(F)(F)F)c1 [Example 27 from WO 2004/089911 A1, reference compound] | – | – | clearance ([2]; rat, 0.25 mg/kg, plasma): 35 mL/min/kg; bioavailability [2, 5]: 28%; half-life ([2]; rat, 0.25 mg/kg, plasma): 288 min; AUC(Norm)(0-x) ([2]; rat, 0.25 mg/kg, plasma): 0.92 µM·kg·h/mg |
| COCCn1nc(-c2cccc(C3(NS(=O)(=O)CC(F)(F)F)COC3)c2)cc1Oc1ccc(C(F)(F)F)cc1 [Example 141, N-(3-{3-[5-(4-trifluoromethylphenoxy)-1-(2-methoxyethyl)-1H-pyrazol-2-yl]phenyl}oxetan-3-yl)-2,2,2-trifluoroethanesulfonamide] | < 200 | < 200 | – |
| CCn1nc(-c2cccc(C(C)(C)NS(=O)(=O)CC(F)(F)F)c2)cc1Oc1ccc(CF)cc1 [Example 63, N-[1-(3-{1-ethyl-5-[4-(fluoromethyl)phenoxy]-1H-pyrazol-3-yl}phenyl)-1-methylethyl]-2,2,2-trifluoroethanesulfonamide] | < 200 | < 200 | – |
| CCn1nc(Oc2ccc(C(F)(F)F)cc2)cc1-c1ccc2c(c1)CC(NS(=O)(=O)NC1CCC1)C2 (centres unmarked) [Example 125, N-cyclobutyl-N′-(5-{1-ethyl-3-[4-(trifluoromethyl)phenoxy]-1H-pyrazol-5-yl}-2,3-dihydro-1H-inden-2-yl)sulfamide] | < 200 | < 200 | – |
| CCn1nc(Oc2ccc(C(F)(F)F)cc2)cc1-c1cccc(C(C)(C)NS(=O)(=O)NCC(F)(F)F)c1 [Example 19, N-[1-(3-{1-ethyl-3-[4-(trifluoromethyl)phenoxy]-1H-pyrazol-5-yl}phenyl)-1-methylethyl]-N′-(2,2,2-trifluoroethyl)sulfamide] | < 200 | < 200 | clearance ([2]; rat, 0.25 mg/kg, plasma): 31 mL/min/kg; bioavailability [2, 5]: 75%; half-life ([2]; rat, 0.25 mg/kg, plasma): 540 min; AUC(Norm)(0-x) ([2]; rat, 0.25 mg/kg, plasma): 0.96 µM·kg·h/mg |
| CCn1nc(-c2cccc(C(C)(C)NS(=O)(=O)NC3CCC3)c2)cc1Oc1ccc(C(F)(F)F)cc1 [Example 3, N-cyclobutyl-N′-[1-(3-{1-ethyl-5-[4-(trifluoromethyl)phenoxy]-1H-pyrazol-3-y}phenyl)-1-methylethyl]sulfamide] | < 200 | < 200 | – |
| Cc1nnc(Cn2nc(-c3cccc(C4(NS(=O)(=O)CC(F)(F)F)COC4)c3)cc2Oc2ccc(C(F)(F)F)cc2)o1 [Example 136, N-(3-{3-[5-(4-trifluoromethylphenoxy)-1-(5-methyl-1,3,4-oxadiazol-2-ylmethyl)-1H-pyrazol-3-yl]phenyl}oxetan-3-yl)-2,2,2-trifluoroethanesulfonamide] | < 200 | < 200 | – |
| CCn1nc(-c2cccc(C(C)(C)NS(=O)(=O)CC(F)(F)F)c2)cc1Oc1ccc(CNc2ccon2)cc1 [Example 83, N-{1-[3-(1-ethyl-5-{4-[(isoxazol-3-ylamino)methyl]phenoxy}-1H-pyrazol-3-yl)phenyl]-1-methylethyl}-2,2,2-trifluoroethanesulfonamide] | < 200 | < 200 | – |

Now from value to compound, other results behind:

| IC50 [1, 3] [nM] | IC50 [1, 4] [nM] | Compound | also measured |
| --- | --- | --- | --- |
| < 200 | < 200 | CCn1nc(-c2cccc(C3(NS(=O)(=O)NCC(F)(F)F)COC3)c2)cc1Oc1ccc(C(F)(F)F)cc1 [Example 96, N-[3-(3-{1-ethyl-5-[4-(trifluoromethyl)phenoxy]-1H-pyrazol-3-yl}phenyl)oxetan-3-yl]-N′-(2,2,2-trifluoroethyl)sulfamide] | clearance ([2]; rat, 0.25 mg/kg, plasma): 41 mL/min/kg; bioavailability [2, 5]: 12%; half-life ([2]; rat, 0.25 mg/kg, plasma): 168 min; AUC(Norm)(0-x) ([2]; rat, 0.25 mg/kg, plasma): 0.09 µM·kg·h/mg |
| < 200 | < 200 | O=C(Cn1nc(-c2cccc(C3(NS(=O)(=O)CC(F)(F)F)COC3)c2)cc1Oc1ccc(C(F)(F)F)cc1)N1CCOCC1 [Example 133, N-[3-(3-{5-(4-trifluoromethylphenoxy)-1-[2-oxo-2-(morpholin-4-yl)ethyl]-1H-pyrazol-3-yl}phenyl)oxetan-3-yl]- ,2,2,2-trifluoroethanesulfonamide] | – |
| < 200 | < 200 | CCn1nc(-c2cc(F)cc(C(C)(C)NS(=O)(=O)CC(F)(F)F)c2)cc1Oc1ccc(C(F)(F)F)cc1 [Example 15, N-[1-(3-{1-ethyl-5-[4-(trifluoromethyl)phenoxy]-1H-pyrazol-3-yl}-5-fluorophenyl)-1-methylethyl]-2,2,2-trifluoraethanesulfonamide] | – |
| < 200 | < 200 | CCn1nc(Oc2ccc(C(F)(F)F)cn2)cc1-c1cccc(C2(NS(=O)(=O)CC(F)(F)F)CC2)c1 [Example 32, N-{1-[3-(1-ethyl-3-{[5-(trifluoromethyl)pyridin-2-yl]oxy}-1H-pyrazol-5-yl)phenyl]cyclopropyl}-2,2,2-trifluoroethanesulfonamide] | – |
| < 200 | < 200 | O=S(=O)(CC(F)(F)F)NC1(c2cccc(-c3cc(Oc4ccc(C(F)(F)F)cc4)n(CC4CCOCC4)n3)c2)COC1 [Example 139, N-(3-{3-[5-(4-trifluoromethylphenoxy)-1-(tetrahydro-2H-pyran-4-ylmethyl)-1H-pyrazol-3-yl]phenyl}oxetan-3-yl)-2,2,2-trifluoroethanesulfonamide] | – |
| < 200 | < 200 | CCn1nc(-c2cccc(C(C)(C)NS(=O)(=O)NC3CCCC3)c2)cc1Oc1ccc(C(F)(F)F)cc1 [Example 13, N-cyclopentyl-N′-[1-(3-{1-ethyl-5-[4-(trifluoromethyl)phenoxy]-1H-pyrazol-3-yl}phenyl)-1-methylethyl]sulfamide] | – |
| < 200 | < 200 | CCn1nc(-c2cccc(C(C)(C)NS(=O)(=O)CC(F)(F)F)c2)c(Br)c1Oc1ccc(C(F)(F)F)cc1 [Example 115, N-[2-(3-{4-bromo-1-ethyl-5-[4-(trifluoromethyl)phenoxy]-1H-pyrazol-3-yl}phenyl)propan-2-yl]-2,2,2-trifluoroethanesulfonamide] | – |
| < 200 | < 200 | CCn1nc(-c2cccc(C(C)(C)NS(=O)(=O)CC(F)(F)F)c2)cc1Oc1ccc(CNCc2cccs2)cc1 [Example 88, N-(1-{3-[1-ethyl-5-(4-{[(2-thienylmethyl)amino]methyl}phenoxy)-1H-pyrazol-3-yl]phenyl}-1-methylethyl)-2,2,2-trifluoroethanesulfonamide] | – |
| < 200 | < 200 | COCCCn1nc(-c2cccc(C3(NS(=O)(=O)CC(F)(F)F)COC3)c2)cc1Oc1ccc(C(F)(F)F)cc1 [Example 142] | – |
| < 200 | < 200 | CCn1nc(-c2cncc(C3(NS(=O)(=O)CC(F)(F)F)COC3)c2)cc1Oc1ccc(C(F)(F)F)cc1 [Example 126, N-[3-(5-{1-ethyl-5-[4-(trifluoromethyl)phenoxy]-1H-pyrazol-3-yl}pyridine-3-yl)oxetan-3-yl]-2,2,2-trifluoroethanesulfonamide] | – |
| < 200 | < 200 | CCn1nc(-c2cccc(C(C)(C)NS(=O)(=O)CC(F)(F)F)c2)c(C#N)c1Oc1ccc(C(F)(F)F)cc1 [Example 117, N-[2-(3-{4-cyano-1-ethyl-5-[4-(trifluoromethyl)phenoxy]-1H-pyrazol-3-yl}phenyl)propan-2-yl]-2,2,2-trifluoroethanesulfonamide] | – |
